Assay results as given in PubChem BioAssay (NCI).
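Interpolation was linear, between the two tested concentrations surrounding the appropriate level; five concentrations were tested over 48 hours in 96-well plates. TGI is the concentration that stops growth completely.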

Legend:
Assay in all cases: inhibition of tumour cell growth, NCI panel, 48 h
MALME-3M melanoma = tested on: MALME-3M melanoma
SK-MEL-2 melanoma = tested on: SK-MEL-2 melanoma
UACC-257 melanoma = tested on: UACC-257 melanoma
HT29 colon = tested on: HT29 colon
A498 renal = tested on: A498 renal
SF-268 CNS = tested on: SF-268 CNS
OVCAR-8 ovarian = tested on: OVCAR-8 ovarian
COLO 205 colon = tested on: COLO 205 colon
M14 melanoma = tested on: M14 melanoma
SF-295 CNS = tested on: SF-295 CNS
NCI-H460 lung = tested on: NCI-H460 lung
U251 CNS = tested on: U251 CNS
RPMI-8226 leukemia = tested on: RPMI-8226 leukemia
M19-MEL melanoma = tested on: M19-MEL melanoma
HL-60(TB) leukemia = tested on: HL-60(TB) leukemia
UO-31 renal = tested on: UO-31 renal
XF 498 CNS = tested on: XF 498 CNS
SW-620 colon = tested on: SW-620 colon
OVCAR-3 ovarian = tested on: OVCAR-3 ovarian
RXF 393 renal = tested on: RXF 393 renal
LOX IMVI melanoma = tested on: LOX IMVI melanoma
A549 NSCLC = tested on: A549 NSCLC
OVCAR-4 ovarian = tested on: OVCAR-4 ovarian
786-0 renal = tested on: 786-0 renal
HCT-15 colon = tested on: HCT-15 colon
EKVX NSCLC = tested on: EKVX NSCLC
NCI-H23 lung = tested on: NCI-H23 lung
DMS 273 small cell lung = tested on: DMS 273 small cell lung
HCT-116 colon = tested on: HCT-116 colon
SNB-78 CNS = tested on: SNB-78 CNS
SNB-19 CNS = tested on: SNB-19 CNS
KM20L2 colon = tested on: KM20L2 colon
SR leukemia = tested on: SR leukemia
DMS 114 small cell lung = tested on: DMS 114 small cell lung
ACHN renal = tested on: ACHN renal
HCC-2998 colon = tested on: HCC-2998 colon
SK-MEL-5 melanoma = tested on: SK-MEL-5 melanoma
SN12C renal = tested on: SN12C renal
OVCAR-5 ovarian = tested on: OVCAR-5 ovarian
MOLT-4 leukemia = tested on: MOLT-4 leukemia
SK-OV-3 ovarian = tested on: SK-OV-3 ovarian
SF-539 CNS = tested on: SF-539 CNS
IGROV1 ovarian = tested on: IGROV1 ovarian
CAKI-1 renal = tested on: CAKI-1 renal
SK-MEL-28 melanoma = tested on: SK-MEL-28 melanoma
SNB-75 CNS = tested on: SNB-75 CNS
TK-10 renal = tested on: TK-10 renal
DLD-1 colon = tested on: DLD-1 colon
K-562 leukemia = tested on: K-562 leukemia
HOP-62 NSCLC = tested on: HOP-62 NSCLC
NCI-H522 lung = tested on: NCI-H522 lung
UACC-62 melanoma = tested on: UACC-62 melanoma
CCRF-CEM leukemia = tested on: CCRF-CEM leukemia
LXFL 529 NSCLC = tested on: LXFL 529 NSCLC
HOP-92 NSCLC = tested on: HOP-92 NSCLC
HOP-18 NSCLC = tested on: HOP-18 NSCLC
KM12 colon = tested on: KM12 colon
NCI-H226 lung = tested on: NCI-H226 lung

N#Cc1c2c(c(Cl)n3c1nc1ccccc13)CCCC2 showed a TGI (MALME-3M melanoma) of 27 µM, a TGI (SK-MEL-2 melanoma) of 8.34 µM and a TGI (UACC-257 melanoma) of 3.91 µM. The TGI (HT29 colon) was 2.86 µM, the TGI (A498 renal) was 23.8 µM and the TGI (SF-268 CNS) was 8.83 µM. It also gave a TGI (OVCAR-8 ovarian) of 5.89 µM, a TGI (COLO 205 colon) of 17.7 µM and a TGI (M14 melanoma) of 11.3 µM. The TGI (SF-295 CNS) was 16.6 µM, the TGI (NCI-H460 lung) was 4.02 µM and the TGI (U251 CNS) was 11.8 µM. The TGI (RPMI-8226 leukemia) was 7.52 µM, the TGI (M19-MEL melanoma) was 12.2 µM and the TGI (HL-60(TB) leukemia) was 5.25 µM. It also gave a TGI (UO-31 renal) of 12.8 µM, a TGI (XF 498 CNS) of 5.29 µM and a TGI (SW-620 colon) of 4.43 µM. It also gave a TGI (OVCAR-3 ovarian) of 20.1 µM, a TGI (RXF 393 renal) of 0.904 µM and a TGI (LOX IMVI melanoma) of 4.57 µM. For the same compound, the TGI (A549 NSCLC) was 17.2 µM, the TGI (OVCAR-4 ovarian) was 16.7 µM and the TGI (786-0 renal) was 3.33 µM. It also gave a TGI (HCT-15 colon) of 10.6 µM, a TGI (EKVX NSCLC) of 32.1 µM and a TGI (NCI-H23 lung) of 17 µM. It also gave a TGI (DMS 273 small cell lung) of 3.74 µM, a TGI (HCT-116 colon) of 5.43 µM and a TGI (SNB-78 CNS) of 15.9 µM. For the same compound, the TGI (SNB-19 CNS) was 14.7 µM, the TGI (KM20L2 colon) was 7.48 µM and the TGI (SR leukemia) was over 100 µM. The TGI (DMS 114 small cell lung) was 5.12 µM, the TGI (ACHN renal) was 12.4 µM and the TGI (HCC-2998 colon) was 30.8 µM. It also gave a TGI (SK-MEL-5 melanoma) of 3.26 µM, a TGI (SN12C renal) of 4.74 µM and a TGI (OVCAR-5 ovarian) of 32.4 µM. For the same compound, the TGI (MOLT-4 leukemia) was 24.8 µM, the TGI (SK-OV-3 ovarian) was 10.2 µM and the TGI (SF-539 CNS) was 14 µM. It also gave a TGI (IGROV1 ovarian) of 8.28 µM, a TGI (CAKI-1 renal) of 11.8 µM and a TGI (SK-MEL-28 melanoma) of 4.43 µM. It also gave a TGI (SNB-75 CNS) of 30.9 µM, a TGI (TK-10 renal) of 6.68 µM and a TGI (DLD-1 colon) of 24.2 µM. For the same compound, the TGI (K-562 leukemia) was 7.15 µM.

With CCCCC1CC(c2ccc(Cl)cc2)=NO1 (stereo not drawn) the TGI (MALME-3M melanoma) was over 100 µM, the TGI (SK-MEL-2 melanoma) was over 100 µM and the TGI (UACC-257 melanoma) was over 100 µM. It also gave a TGI (HT29 colon) of over 100 µM, a TGI (A498 renal) of over 100 µM and a TGI (HOP-62 NSCLC) of over 100 µM. It also gave a TGI (SF-268 CNS) of over 100 µM, a TGI (OVCAR-8 ovarian) of over 100 µM and a TGI (COLO 205 colon) of over 100 µM. It also gave a TGI (M14 melanoma) of over 100 µM, a TGI (SF-295 CNS) of over 100 µM and a TGI (NCI-H522 lung) of over 100 µM. The TGI (NCI-H460 lung) was over 100 µM, the TGI (UACC-62 melanoma) was over 100 µM and the TGI (U251 CNS) was over 100 µM. The TGI (RPMI-8226 leukemia) was over 100 µM, the TGI (M19-MEL melanoma) was over 100 µM and the TGI (HL-60(TB) leukemia) was over 100 µM. It also gave a TGI (UO-31 renal) of over 100 µM, a TGI (SW-620 colon) of over 100 µM and a TGI (OVCAR-3 ovarian) of over 100 µM. For the same compound, the TGI (A549 NSCLC) was over 100 µM, the TGI (OVCAR-4 ovarian) was over 100 µM and the TGI (786-0 renal) was over 100 µM. For the same compound, the TGI (HCT-15 colon) was over 100 µM, the TGI (EKVX NSCLC) was over 100 µM and the TGI (NCI-H23 lung) was over 100 µM. For the same compound, the TGI (DMS 273 small cell lung) was over 100 µM, the TGI (HCT-116 colon) was over 100 µM and the TGI (CCRF-CEM leukemia) was over 100 µM. It also gave a TGI (LXFL 529 NSCLC) of over 100 µM, a TGI (SNB-78 CNS) of over 100 µM and a TGI (SNB-19 CNS) of over 100 µM. It also gave a TGI (HOP-92 NSCLC) of over 100 µM, a TGI (SR leukemia) of over 100 µM and a TGI (DMS 114 small cell lung) of over 100 µM. The TGI (ACHN renal) was over 100 µM, the TGI (HCC-2998 colon) was over 100 µM and the TGI (HOP-18 NSCLC) was over 100 µM. The TGI (SK-MEL-5 melanoma) was over 100 µM, the TGI (SN12C renal) was over 100 µM and the TGI (OVCAR-5 ovarian) was over 100 µM. For the same compound, the TGI (MOLT-4 leukemia) was over 100 µM, the TGI (KM12 colon) was over 100 µM and the TGI (SK-OV-3 ovarian) was over 100 µM. It also gave a TGI (SF-539 CNS) of over 100 µM, a TGI (IGROV1 ovarian) of over 100 µM and a TGI (CAKI-1 renal) of over 100 µM. The TGI (SK-MEL-28 melanoma) was over 100 µM, the TGI (SNB-75 CNS) was over 100 µM and the TGI (TK-10 renal) was over 100 µM. It also gave a TGI (DLD-1 colon) of over 100 µM, a TGI (NCI-H226 lung) of over 100 µM and a TGI (K-562 leukemia) of over 100 µM.
